Reference: ChEMBL document CHEMBL5727158, “Rho-associated protein kinase inhibitor, pharmaceutical composition comprising the same, as well as preparation method and use thereof” (2019)

Target: Rho-associated protein kinase 2 (Homo sapiens, UniProt O75116)
Assay: Biological Assay: The kinase IC50 was determined by a commercialized CISBIO kinase detection kit, HTRF KinEASE-STK S2 kit (62ST2PEC). ROCK2 (01-119) employed in the reaction was purchased from Carna Biosciences.Before the assay, the following working solutions as needed were formulated with corresponding reagents according to the instruction of the kinase detection kit: 1×kinase buffer, 5×STK-52 substrate working solution (1.5 μM) and 5×ATP working solution (1.5 μM), 5×ROCK2 kinase working solution, 4×Streptavidin-XL665 working solution, and 4×STK-Ab-Cryptate 2 detection solution. Then the assay was performed according to the following procedure.A solution of a compound at a concentration of 10000 nM was prepared with the 1×kinase buffer containing 2.5% DMSO. Gradient dilution of the solution of the compound was performed with the kinase buffer containing DMSO, so as to obtain solutions of a test compound at 9 different concentrations. In addition to wells of test compounds, a positive well (containing all the reagents except the compound) and a negative well (containing all the reagents except the test compound and kinase) were set. Except for the control wells (positive and negative wells), a solution of a test compound (4 μL) was added to each of the reaction wells, and a solution of 2.5% DMSO was added to the control wells. […]

Rho-associated protein kinase 2, sequence (O75116 whole entry): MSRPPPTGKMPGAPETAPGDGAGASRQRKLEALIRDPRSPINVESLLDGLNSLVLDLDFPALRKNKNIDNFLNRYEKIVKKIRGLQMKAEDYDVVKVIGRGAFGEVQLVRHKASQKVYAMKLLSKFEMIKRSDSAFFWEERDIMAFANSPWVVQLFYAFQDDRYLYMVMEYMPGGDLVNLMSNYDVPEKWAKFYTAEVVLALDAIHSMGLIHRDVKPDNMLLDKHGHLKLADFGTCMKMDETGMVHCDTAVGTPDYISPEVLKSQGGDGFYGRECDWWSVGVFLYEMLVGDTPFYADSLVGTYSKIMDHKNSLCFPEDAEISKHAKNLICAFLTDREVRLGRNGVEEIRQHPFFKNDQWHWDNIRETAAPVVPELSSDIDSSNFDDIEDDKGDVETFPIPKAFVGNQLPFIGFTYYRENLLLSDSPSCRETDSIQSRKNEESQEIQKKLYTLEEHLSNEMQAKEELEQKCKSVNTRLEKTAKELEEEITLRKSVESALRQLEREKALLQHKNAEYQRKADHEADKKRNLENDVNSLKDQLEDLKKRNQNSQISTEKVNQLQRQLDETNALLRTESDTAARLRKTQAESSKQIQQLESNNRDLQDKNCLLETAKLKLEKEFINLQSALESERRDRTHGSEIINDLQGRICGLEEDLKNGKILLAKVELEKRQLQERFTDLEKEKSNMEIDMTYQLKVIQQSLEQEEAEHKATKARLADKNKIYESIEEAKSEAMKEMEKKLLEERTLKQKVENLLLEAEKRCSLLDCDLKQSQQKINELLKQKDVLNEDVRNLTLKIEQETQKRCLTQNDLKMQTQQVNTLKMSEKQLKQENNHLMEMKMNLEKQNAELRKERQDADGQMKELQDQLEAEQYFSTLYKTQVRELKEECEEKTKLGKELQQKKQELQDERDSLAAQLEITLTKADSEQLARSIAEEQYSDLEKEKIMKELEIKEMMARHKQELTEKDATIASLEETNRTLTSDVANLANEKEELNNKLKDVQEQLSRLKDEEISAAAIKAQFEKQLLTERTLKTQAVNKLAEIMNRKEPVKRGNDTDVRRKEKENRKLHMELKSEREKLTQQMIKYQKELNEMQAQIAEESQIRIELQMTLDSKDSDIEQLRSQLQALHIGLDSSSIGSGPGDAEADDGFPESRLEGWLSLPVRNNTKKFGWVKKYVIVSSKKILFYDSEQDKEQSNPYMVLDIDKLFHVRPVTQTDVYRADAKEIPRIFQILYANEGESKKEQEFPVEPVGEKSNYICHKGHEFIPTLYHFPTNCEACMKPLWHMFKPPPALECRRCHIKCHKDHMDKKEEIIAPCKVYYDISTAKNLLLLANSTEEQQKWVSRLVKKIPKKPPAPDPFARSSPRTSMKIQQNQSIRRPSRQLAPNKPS

O=C(Nc1ccc(-c2cn[nH]c2)cc1)c1cc2ccc(-c3nccc(Nc4ccc5[nH]ncc5c4)n3)cc2[nH]1
IC50: 0.071 µM
